Reference: patent US20250090437A1, “COSMETIC COMPOUNDING AGENT, COSMETIC AND PRODUCTION METHOD THEREOF” (MIYOSHI OIL & FAT CO., LTD., priority 2019, published 2025)

Key:
[1] = Water confinement property test (barrier property); assay type: physicochemical; settings: 24 hours
Experimental: Next, 20.0 g of an ion-exchange water was put into a 40 mL pierce vial bottle (by AS ONE Corporation.), followed by removing an inner lid (rubber plug) of the pierce vial bottle, placing on the pierce vial bottle the filter paper to which each sample had been applied, and then plugging the bottle with an outer lid.
Further, Wm1, Wm2, Sm1 and Sm2 in the formula below respectively represent the following numerical values.
Wm1: Weight of ion-exchange water in vial before storage (using filter paper to which only ion-exchange water had been applied)
Wm2: Weight of ion-exchange water in vial after 24 hours (using filter paper to which only ion-exchange water had been applied)
Sm1: Weight of ion-exchange water in vial before storage (using filter paper to which sample had been applied)
Sm2: Weight of ion-exchange water in vial after 24 hours (using filter paper to which sample had been applied)

[2] = Water retention property and adherability with respect to healthy hair; set-up: species or system human; settings: for Post-test moisture rate / Compound adhesion rate: healthy hair immersed 60 min in 80 wt % aqueous solution; for Post-test moisture rate: after 24 hours at 40° C., pre-test 7.6%; for Post-test moisture rate / Rate of reduction in moisture: 35 to 40% RH; for Rate of reduction in moisture: healthy hair, 80 wt % aqueous solution, 24 hours at 40° C.; for Adherability to the healthy hair: compared to the compounds of comparative examples B1 to B8
Experimental: In the following evaluations, a human black hair produced by Beaulax Co., Ltd was used as a healthy hair. A damaged hair was prepared by repeatedly having the healthy hair permed and bleached three times.
An 80 wt % aqueous solution of each of the compounds B1 to B26 (content in terms of anhydride in the cases of the compounds B1 to B23) was prepared, followed by using a Karl Fischer moisture meter (KF-200 by Mitsubishi Chemical Analytech Co., Ltd.) to confirm that a moisture rate was 20.0 wt %. As a healthy hair, there was used a chemically untreated healthy hair (human black hair by Beaulax Co., Ltd). The moisture rate (pre-test moisture rate A) of the hair was measured by an infrared moisture meter (by Kett Electric Laboratory).
After immersion, the hair was taken out, and KimWipes were then used to wipe off the compound until a change in weight was no longer observed, followed by measuring the weight of the hair (post-test hair weight B). The hair from which the compound had been wiped off was then placed into a thermo-hygrostat set to 40° C. and 35 to 40% RH. A moisture rate after 24 hours (post-test moisture rate B) was then measured, followed by calculating a rate of reduction in moisture with the following formula. Likewise, instead of the 80 wt % aqueous solution, evaluation was also performed in a similar manner using only an ion-exchange water (comparative example B4).
Further, an adhesion rate of the compound adhering to the hair was calculated with the following formula. […]

[3] = Water retention property test 1; assay type: physicochemical; settings: 80 wt % aqueous solution
Experimental: A moisture rate after 24 hours was again measured (post-test moisture rate: B), followed by using the formula below to calculate a rate of reduction in moisture so as to evaluate the water retention property. • Pre-test moisture rate: A (%) • Post-test moisture rate: B (%)

[4] = Sensory evaluation on healthy hair after using shampoo agent containing organic ammonium salt; set-up: species or system human; settings: shampoo agent containing 3.0% by mass of the compound; treated 10 times
Experimental: Next, the mixture was cooled to a temperature of 30° C. or lower, and a purified water of an evaporated amount was then added thereto so that the whole hair treatment composition would be 100% by mass, followed by uniformly mixing them so as to obtain a hair treatment composition(s). The pH level of the hair treatment composition was adjusted to pH 6.0 by adding a citric acid or sodium hydroxide.
About 5 g of the healthy hair was taken and dipped into 350 ml of a seven-time dilute aqueous solution of each of the abovementioned hair treatment compositions (shampoo agents) at 35 to 40° C. so as to be washed. The healthy hair was then subjected to a rinsing treatment five times using 500 ml of a warm water of 35 to 40° C., followed by drying the same at 80° C., and then performing air drying at 25° C. Such series of treatment involving hair washing, rinsing and drying was repeated 10 times to then evaluate a cohesiveness of the hair, a moist feeling of the hair, a gloss of the hair, a surface smoothness of the hair and a non-stickiness on the surface of the hair, after performing air drying.

[5] = Sensory evaluation on healthy hair after using organic ammonium salt; set-up: species or system human; settings: compared to the compounds of the comparative examples
Experimental: (§1) Here, an 80 wt % aqueous solution(s) of each of the compounds B11, B12, B23, B26 and B27 (content in terms of anhydride in the cases of the compounds B11, B12 and B23) were prepared and used as samples. Next, one minute was spent in evenly applying 10.0 g of each sample to a bundle of the healthy hairs weighing about 10 g, using a brush; the bundle of the healthy hairs was then left for 5 min. After leaving it for 5 min, the bundle of the healthy hairs was rinsed with a hot water of 40° C. for 30 sec, and evaluated was a finger-combing capability at the time of performing washing. The hair bundle that had been rinsed was then dried with a towel and further subjected to air drying for a day, followed by evaluating items such as flexibility, finger-combing capability, texture, elasticity/resilience (feeling by bare hands), volume increase (visual evaluation), cohesiveness, moist feeling, surface smoothness, non-stickiness (feeling by bare hands) and gloss (visual evaluation), from the perspective of superiority or inferiority to a test hair bundle(s) uncoated with the sample.

[6] = Sensory evaluation on damaged hair after using organic ammonium salt; set-up: species or system human; settings: compared to the compounds of the comparative examples
Experimental: as §1, with “damaged” for “healthy”, “as” for “as flexibility, finger-combing capability, texture,”, “hands),” for “hands), volume increase (visual evaluation),”, “cohesiveness,” for “cohesiveness, moist feeling,”, “smoothness” for “smoothness, non-stickiness (feeling by bare hands)”, “non-waviness,” for “gloss (visual evaluation),”

[7] = Permeability to skin (horny layer tape stripping method); assay type: in vivo; settings: extraction liquid, an hour after application to the arm, HPLC
Experimental: Skin permeability was evaluated by a horny layer tape stripping method. […] A sample was applied to the arm and then left thereon for an hour before performing tape stripping on the horn by eight layers. An adhered substance on this tape was then extracted with an ion-exchange water over the course of 10 min, followed by filtrating an extraction liquid thus obtained with a 0.2 μm filter, and then quantifying, via HPLC, the amount of each of the compounds C20, C64 and C97 in each extraction liquid filtrated.

[8] = Stability of ascorbic acid-based compound (coloration); assay type: physicochemical; set-up: key to Appearance (Visual evaluation) Immediately after preparatiom / Appearance (Visual evaluation) After 7 days 50° C. / Appearance (Visual evaluation) After 7 days Room temperature: ⊚: Colorless and transparent; ∘: Light yellow; Δ: Yellow; x: Brown to black; settings: 33 wt % aqueous solution
Experimental: With regard to a 33 wt/% aqueous solution of each of the compounds C46, C49 and C98 to C100 and water, a stability in an aqueous solution condition was visually evaluated. An evaluation method was such that there was prepared a 33 wt % aqueous solution of each of the compounds C46, C49 and C98 to C100, the aqueous solution was then left to stand still at room temperature or in a thermostatic bath of 50° C. for seven days; coloration before and after the still standing was visually confirmed. The evaluation criteria were as follows. • ⊚: Colorless and transparent • ∘: Light yellow • Δ: Yellow • x: Brown to black

[9] = unsealed, 24 hours at 40° C. and 25% RH

Compound: CCCC[N+](CCCC)(CCCC)CCCC.[Br-] [Compound A54, tetrabutylammonium bromide, reference compound]
- Water evaporation inhibition rate ([1]; 80 wt % aqueous solution, 0.01 mL/cm^2 on filter paper, 40° C. and 25% RH): 29.5%
- Post-test moisture rate [2]: 4.0%
- Compound adhesion rate ([2]; listed as B24): 1.0%
- Rate of reduction in moisture [2]: 47%
- Pre-test moisture rate ([3]; before the test (Karl Fischer)): 20.0%
- Post-test moisture rate [3, 9]: 15.3%
- Rate of reduction in moisture [3, 9]: 23.6%

Compound: CC(N)(CO)CO.O=C1O[C@H]([C@@H](O)CO)C(O)=C1O [Compound B7]
- Compound adhesion rate [2]: 2.4%
- Post-test moisture rate [2]: 6.0%
- Rate of reduction in moisture [2]: 21%
- Sensory evaluation of healthy hair after shampoo agent (cohesiveness, moist feeling, gloss, smoothness, non-stickiness) [4]: favorable

Compound: CCCCCCCC/C=C\CCCCCCCC(=O)OCC(N)(CO)CO [Compound B30, 2-amino-2-hydroxymethyl-1,3-propanediol oleate]
- Sensory evaluation on healthy hair (flexibility, finger-combing, texture, elasticity/resilience, volume, cohesiveness, moist feeling, smoothness, non-stickiness, gloss) [5]: superior
- Sensory evaluation on damaged hair (elasticity/resilience, cohesiveness, surface smoothness, suppression of waviness) [6]: superior
- Adherability to the healthy hair [2]: higher adherability

Compound: CCCCC/C=C\C/C=C\CCCCCCCC(=O)OCC(N)(CO)CO [Compound B31, 2-amino-2-hydroxymethyl-1,3-propanediol linoleate]
- Sensory evaluation on healthy hair (flexibility, finger-combing, texture, elasticity/resilience, volume, cohesiveness, moist feeling, smoothness, non-stickiness, gloss) [5]: superior
- Water evaporation inhibition rate ([1]; sample on filter paper over vial of water, 40° C., 25% RH): 48.1%
- Sensory evaluation on damaged hair (elasticity/resilience, cohesiveness, surface smoothness, suppression of waviness) [6]: superior
- Adherability to the healthy hair [2]: higher adherability

Compound: CC(C)CCCCCCCCCCCCCCC(=O)OCC(N)(CO)CO [Compound B32, 2-amino-2-hydroxymethyl-1,3-propanediol isostearate]
- Sensory evaluation on healthy hair (flexibility, finger-combing, texture, elasticity/resilience, volume, cohesiveness, moist feeling, smoothness, non-stickiness, gloss) [5]: superior
- Sensory evaluation on damaged hair (elasticity/resilience, cohesiveness, surface smoothness, suppression of waviness) [6]: superior
- Adherability to the healthy hair [2]: higher adherability

Compound: CCCCCCCC/C=C\CCCCCCCC(=O)OCC(C)(N)CO (centres unmarked) [Compound B33, 2-amino-2-methyl-1,3-propanediol oleate]
- Sensory evaluation on healthy hair (flexibility, finger-combing, texture, elasticity/resilience, volume, cohesiveness, moist feeling, smoothness, non-stickiness, gloss) [5]: superior
- Sensory evaluation on damaged hair (elasticity/resilience, cohesiveness, surface smoothness, suppression of waviness) [6]: superior
- Adherability to the healthy hair [2]: higher adherability

Compound: CCCCC/C=C\C/C=C\CCCCCCCC(=O)OCC(C)(N)CO (centres unmarked) [Compound B34, 2-amino-2-methyl-1,3-propanediol linoleate]
- Sensory evaluation on healthy hair (flexibility, finger-combing, texture, elasticity/resilience, volume, cohesiveness, moist feeling, smoothness, non-stickiness, gloss) [5]: superior
- Sensory evaluation on damaged hair (elasticity/resilience, cohesiveness, surface smoothness, suppression of waviness) [6]: superior
- Adherability to the healthy hair [2]: higher adherability

Compound: CC(C)CCCCCCCCCCCCCCC(=O)OCC(C)(N)CO (centres unmarked) [Compound B35, 2-amino-2-methyl-1,3-propanediol isostearate]
- Sensory evaluation on healthy hair (flexibility, finger-combing, texture, elasticity/resilience, volume, cohesiveness, moist feeling, smoothness, non-stickiness, gloss) [5]: superior
- Sensory evaluation on damaged hair (elasticity/resilience, cohesiveness, surface smoothness, suppression of waviness) [6]: superior
- Adherability to the healthy hair [2]: higher adherability

Compound: CC(O)C(=O)[O-].[K+] (centres unmarked) [Compound C97, potassium lactate]
- Compound concentration ([7]; Tape stripping layer 1): 0.020 ml/L
- Compound concentration ([7]; Tape stripping layer 2): 0.017 ml/L
- Compound concentration ([7]; Tape stripping layer 3): 0.016 ml/L
- Compound concentration ([7]; Tape stripping layer 4): 0.009 ml/L
- Compound concentration ([7]; Tape stripping layer 5): 0.008 ml/L
- Compound concentration ([7]; Tape stripping layer 6): 0.006 ml/L
- Compound concentration ([7]; Tape stripping layer 7): 0.006 ml/L
- Compound concentration ([7]; Tape stripping layer 8): 0.006 ml/L

Compound: O=C1O[C@H]([C@@H](O)CO)C(O)=C1O [Compound C98, ascorbic acid]
- Appearance (Visual evaluation) After 7 days 50° C. [8]: x
- Appearance (Visual evaluation) After 7 days Room temperature [8]: x
- Appearance (Visual evaluation) Immediately after preparatiom [8]: ⊚

Compound: O=C1O[C@H]([C@@H](O)CO)C(O)=C1O[C@H]1O[C@H](CO)[C@@H](O)[C@H](O)[C@H]1O [Compound C99, ascorbic acid glucoside]
- Appearance (Visual evaluation) After 7 days 50° C. [8]: Δ~x
- Appearance (Visual evaluation) After 7 days Room temperature [8]: ○
- Appearance (Visual evaluation) Immediately after preparatiom [8]: ⊚

Compound: O=C1O[C@H]([C@@H](O)CO)C([O-])=C1OP(=O)([O-])[O-].[Na+].[Na+].[Na+] [Compound C100, sodium ascorbyl phosphate]
- Appearance (Visual evaluation) After 7 days 50° C. [8]: Δ~x
- Appearance (Visual evaluation) After 7 days Room temperature [8]: ○~Δ
- Appearance (Visual evaluation) Immediately after preparatiom [8]: ⊚
